In ChEMBL document CHEMBL1201862, “PubChem BioAssay data set” (2004):
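Assay format: 96-well plates, 48-hour exposure. GI50 is the concentration that inhibits growth by half.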 Active and inactive are the calls of the source. Cut-off read from the data, not from the text of the source: active = GI50 up to about 1.1 µM and inactive = higher.

Key:
Experiment in all cases: growth of human tumour cells (NCI), 48 h
[1] = tested on: A549
[2] = tested on: K562
[3] = tested on: IGROV-1
[4] = tested on: HL-60
[5] = tested on: SF-539
[6] = tested on: NCI-H522
[7] = tested on: SK-MEL-28
[8] = tested on: COLO 205
[9] = tested on: CCRF-CEM
[10] = tested on: SW-620
[11] = tested on: LOX IMVI
[12] = tested on: U-251
[13] = tested on: NCI-H23
[14] = tested on: SNB-75
[15] = tested on: HT-29
[16] = tested on: SNB-19
[17] = tested on: SK-MEL-5
[18] = tested on: MOLT-4
[19] = tested on: OVCAR-3
[20] = tested on: NCI-H460

Measured: GI50

c1ccc(CSC2(SCc3ccccc3)CCCC2)cc1
inactive: [1] > 10 µM | [2] > 10 µM | [3] > 10 µM | [4] > 10 µM | [5] > 10 µM | [6] > 10 µM | [7] > 10 µM | [8] > 10 µM | [9] > 10 µM | [10] > 10 µM | [11] > 10 µM | [12] > 10 µM | [13] > 10 µM | [14] > 10 µM | [15] > 10 µM | [16] > 10 µM | [17] > 10 µM | [18] > 10 µM | [19] > 10 µM | [20] > 10 µM

CC1(C)OP23(NC(=O)OC2(C(F)(F)F)c2ccccc2O3)OC1(C)C (stereo unspecified)
inactive: [1] > 100 µM | [2] > 100 µM | [4] > 100 µM | [5] > 100 µM | [6] > 100 µM | [7] > 100 µM | [9] > 100 µM | [11] > 100 µM | [12] > 100 µM | [13] > 100 µM | [14] > 100 µM | [15] > 100 µM | [16] > 100 µM | [17] > 100 µM | [18] > 100 µM | [19] > 100 µM | [20] > 100 µM

COc1cc(C2C(C(=O)O)=C(CO)Oc3cc4c(cc32)OCO4)cc(OC)c1O (stereo unspecified)
inactive: [1] > 100 µM | [2] > 100 µM | [3] > 100 µM | [4] > 100 µM | [5] > 100 µM | [7] > 100 µM | [8] > 100 µM | [9] > 100 µM | [10] > 100 µM | [11] > 100 µM | [12] > 100 µM | [14] > 100 µM | [15] > 100 µM | [16] > 100 µM | [17] > 100 µM | [18] > 100 µM | [19] > 100 µM | [20] > 100 µM

CC1(C)CC(=O)C2=C(C1)OC1=C(CC(C)(C)CC1=O)C2c1ccccc1[N+](=O)[O-] (stereo unspecified)
inactive: [1] > 100 µM | [2] > 100 µM | [3] > 100 µM | [4] > 100 µM | [5] > 100 µM | [6] > 100 µM | [7] > 100 µM | [8] > 100 µM | [9] > 100 µM | [10] > 100 µM | [11] > 100 µM | [12] > 100 µM | [13] > 100 µM | [14] > 100 µM | [15] > 100 µM | [16] > 100 µM | [17] > 100 µM | [18] > 100 µM | [19] > 100 µM | [20] > 100 µM

c1ccc(C(NC2=NCCO2)c2ccccc2)cc1
inactive: [1] > 10 µM | [2] > 10 µM | [3] > 10 µM | [4] > 10 µM | [5] > 10 µM | [6] > 10 µM | [7] > 10 µM | [8] > 10 µM | [9] > 10 µM | [10] > 10 µM | [11] > 10 µM | [12] > 10 µM | [13] > 10 µM | [14] > 10 µM | [15] > 10 µM | [16] > 10 µM | [17] > 10 µM | [18] > 10 µM | [19] > 10 µM | [20] > 10 µM

O=C(O)Cc1cc(F)ccc1C(=O)O
inactive: [1] > 100 µM | [2] > 100 µM | [3] 23.6 µM | [4] > 100 µM | [5] > 100 µM | [6] 92 µM | [7] 60.3 µM | [8] > 100 µM | [9] > 100 µM | [10] > 100 µM | [11] > 100 µM | [12] > 100 µM | [13] > 100 µM | [14] 80.4 µM | [15] > 100 µM | [16] > 100 µM | [17] > 100 µM | [18] > 100 µM | [19] > 100 µM | [20] > 100 µM

O=c1[nH]c(=O)n(C2CC(O)C(CO)O2)cc1C(OCC(F)(F)F)OCC(F)(F)F (stereo unspecified)
inactive: [1] > 100 µM | [2] 53.3 µM | [3] > 100 µM | [4] > 100 µM | [5] > 100 µM | [6] > 100 µM | [7] > 100 µM | [8] > 100 µM | [9] 70.8 µM | [10] > 100 µM | [11] > 100 µM | [12] > 100 µM | [13] > 100 µM | [14] > 100 µM | [15] > 100 µM | [16] > 100 µM | [17] > 100 µM | [18] > 100 µM | [19] > 100 µM | [20] > 100 µM

CC(=O)OC(OC(C)=O)n1cc(C=O)c2ccccc21
inactive: [1] > 100 µM | [2] > 100 µM | [3] > 10 µM | [4] > 100 µM | [6] > 100 µM | [7] > 100 µM | [8] > 100 µM | [9] > 100 µM | [10] > 100 µM | [11] > 100 µM | [12] > 100 µM | [13] > 100 µM | [14] > 10 µM | [15] > 100 µM | [16] > 100 µM | [17] > 100 µM | [18] > 100 µM | [19] > 100 µM | [20] > 100 µM

CN(/N=C1\C(=O)Nc2ccccc21)c1ccccc1
inactive: [1] 72.9 µM | [2] > 100 µM | [3] 36.6 µM | [4] 56.5 µM | [5] 41.2 µM | [6] 87.3 µM | [7] > 100 µM | [8] > 10 µM | [9] 58.7 µM | [10] > 100 µM | [11] > 100 µM | [12] 74.8 µM | [13] 74.6 µM | [14] 2.32 µM | [15] 54.3 µM | [16] > 100 µM | [17] 32.6 µM | [18] 45.2 µM | [19] 33.7 µM | [20] 91.8 µM

CN(C)CCNC(=O)c1cccc2ccc(-c3ccc(F)cc3)nc12
inactive: [1] 3.13 µM | [2] 2.93 µM | [3] 4.16 µM | [4] 2.29 µM | [5] 4.06 µM | [6] 3.91 µM | [7] 7.06 µM | [8] 2.43 µM | [9] 2.86 µM | [10] 3.08 µM | [11] 3.32 µM | [12] 6.19 µM | [13] 4.47 µM | [14] 6.95 µM | [15] 3.3 µM | [16] 6.87 µM | [17] 3.34 µM | [18] 1.94 µM | [19] 6.89 µM | [20] 2.86 µM

Cc1cnc(/N=c2\sc(C)cn2-c2ncc(C)s2)s1
inactive: [1] > 100 µM | [2] > 100 µM | [3] > 100 µM | [4] > 100 µM | [5] > 100 µM | [6] > 100 µM | [7] > 100 µM | [8] > 100 µM | [9] > 100 µM | [10] > 100 µM | [11] > 100 µM | [12] > 100 µM | [13] > 100 µM | [14] 71.3 µM | [15] > 100 µM | [16] > 100 µM | [17] > 100 µM | [18] > 100 µM | [19] > 100 µM | [20] > 100 µM

CC(=O)C1CC[C@@H]2[C@H](CC[C@]3(C)[C@@H](O)CC[C@@H]23)[C@H]1C(=O)O (stereo partly specified)
inactive: [1] > 100 µM | [2] > 100 µM | [3] > 100 µM | [4] > 100 µM | [5] > 100 µM | [6] > 100 µM | [7] > 100 µM | [8] > 100 µM | [9] > 100 µM | [10] > 100 µM | [12] > 100 µM | [13] > 100 µM | [15] > 100 µM | [16] > 100 µM | [17] > 100 µM | [18] > 100 µM | [19] > 100 µM | [20] > 100 µM

COC(=O)c1cn(CC(O)CCl)nn1 (stereo unspecified)
inactive: [1] > 100 µM | [2] > 100 µM | [3] > 100 µM | [4] > 10 µM | [5] > 100 µM | [6] > 100 µM | [7] > 100 µM | [8] > 100 µM | [9] > 100 µM | [10] > 100 µM | [11] > 100 µM | [12] > 100 µM | [13] > 100 µM | [14] > 100 µM | [15] > 100 µM | [16] > 100 µM | [17] > 100 µM | [18] > 100 µM | [19] > 100 µM | [20] > 100 µM

COc1c(Br)cc(CC(N)=O)c(O)c1Br
inactive: [1] > 100 µM | [2] > 100 µM | [3] > 100 µM | [4] > 100 µM | [5] > 100 µM | [6] > 100 µM | [7] > 100 µM | [8] > 100 µM | [9] > 100 µM | [10] > 100 µM | [11] > 100 µM | [12] > 100 µM | [13] > 100 µM | [14] > 100 µM | [15] > 100 µM | [16] > 100 µM | [17] > 100 µM | [18] > 100 µM | [19] > 100 µM
